Patent US20170007568A1, “USE OF COMPOSITION CONTAINING IRON (II) AMINO ACID CHELATE IN PREPARATION OF DRUG FOR AMELIORATING DIABETES” (PROFEAT BIOTECHNOLOGY CO., LTD., priority 2014, published 2017)

Tests used:
Format in all cases: in vivo, C57BL/6JNR male mice
[1] = tested on: type 2 diabetes mice (nicotinamide/streptozotocin + high fat diet); experiment: Insulin (ELISA) of drug-induced diabetic mice; conditions: dose not printed, one month
Protocol: (§1) C57BL/6JNR male mice at 6 weeks of age (purchased from National Laboratory Animal Center) were fed with normal diet for 1 week. Each of the mice was injected intraperitoneally with 240 mg/kg nicotinamide, and after 15 minutes, each of the mice was injected intraperitoneally with 100 mg/kg streptozotocin. Two days later, each of the mice was injected with nicotinamide and streptozotocin with the same dosages and method as shown above, followed by feeding with the high fat diet (60% fat). Two months later, the mice having fasting blood glucose higher than 140 mg/dl and impaired glucose tolerance (which meant that the blood glucose values were not measured within normal range after injecting glucose for 2 hours) were picked to be type 2 diabetes mice.
(§2) The mice were divided into 4 groups which included a control group (supplied with phosphate solution), a metformin (Met) group, a composition A1 with low dose (4 mg/kg/day) group, and a composition A1 with high dose (12 mg/kg/day) group. The weights of the mice were measured every 3 days, and the blood glucose values, oral glucose tolerance assay (OGTT), glycated hemoglobin (HbA1c) and insulin variances of the mice were measured every 4 weeks.
(§3) The blood glucose values were measured with a Chemistry Analyzer (Hitachi, Ltd., Japan). […] The insulin variance was measured with enzyme-linked immunosorbent assay (ELISA) (Mercodia, Ltd. Sweden).

[2] = tested on: type 2 diabetes mice (nicotinamide/streptozotocin + high fat diet); experiment: Glycated hemoglobin (HbA1c) of drug-induced diabetic mice; conditions: dose not printed, one month
Protocol: as §1, §2, §3

[3] = tested on: type 2 diabetes mice (nicotinamide/streptozotocin + high fat diet); experiment: Fasting blood glucose of drug-induced diabetic mice; conditions: dose not printed, one month
Protocol: as §1, §2, §3

[4] = tested on: type 2 diabetes mice (nicotinamide/streptozotocin + high fat diet); experiment: HOMA-IR index of drug-induced diabetic mice; conditions: dose not printed, one month
Protocol: as §1, §2
The index of homeostasis model assessment for insulin resistance (HOMA-IR) was calculated from the following formula:
HOMA-IR index=insulin (μU/ml)×glucose (mmol/L)/22.5.

[5] = tested on: type 2 diabetes mice (nicotinamide/streptozotocin + high fat diet); experiment: Oral glucose tolerance assay (OGTT) in drug-induced diabetic mice; conditions: metformin group, dose not given
Protocol: as §1, §2, §3

Row | Structure (SMILES) | insulin [1] | Glycated hemoglobin (HbA1c) [2] | Fasting blood glucose [3] | HOMA-IR [4] | glucose tolerance (OGTT) [5] | HOMA-IR ([4]; listed as metformin)
1 | NCC(=O)O [Glycine] | 12.47 ± 2.36 | 3.71 ± 0.03 | 182.88 ± 11.20 | 5.23 ± 1.73 |  | 
2 | CN(C)C(=N)N=C(N)N [Metformin] | 11.11 ± 6.47 | 3.57 ± 0.04 | 169.00 ± 10.77 | 4.53 ± 1.42 | improved | 4.53
